Experimental data from patent US10398751B2, “Pharmaceutical compositions of water soluble peptides with poor solubility in isotonic conditions and methods for their use” (STRONGBRIDGE IRELAND LIMITED, priority 2016, dated 2019).
Structures can show the parent of a compound that is named as a salt. Where two headings read alike, the source gives them in different places.

Assay: Solubility screening of veldoreotide acetate (10 mg, incremental volumes of medium, USP definition)
Type: physicochemical
Excerpt: The solubility of veldoreotide acetate in aqueous media was screened by the following method. A fixed amount of 10 milligrams of the peptide was weighed and dissolved at ambient temperature by increased (incremental) volumes of the tested medium until a complete solubility was observed, i.e, clear/transparent solution and absence of any precipitates (the solubility endpoint values were defined according to USP guidance). Following the results of the screening studies, several media were selected for verification studies based on quantitative assessment of the peptide concentration by HPLC (maximal solubility). The results of the screening study are depicted in Table 1 while the results of the verification studies are included in Table 2.

solubility (Acetone (USP), 0.1 ml Freely soluble (0.1 g/ml), 10 mg in Acetone (USP)): > 100 mg/mL | solubility (Acetone (USP), 10 ml Slightly soluble (0.001 g/ml; 1 mg/ml), 10 mg in Acetone (USP)): > 1 mg/mL | solubility (Dextrose 5% (USP), 10 mg in Dextrose 5% (USP), read-out: 0.01 ml Very soluble (1 g/ml)): < 1000 mg/mL | solubility (Dextrose 5% (USP), 10 mg in Dextrose 5% (USP), read-out: 0.5 ml Soluble (0.02 g/ml; 20 mg/ml)): > 20 mg/mL | solubility (Dextrose 5% (USP), 10 mg in Dextrose 5% (USP), read-out: 1 ml Sparingly soluble (0.01 g/ml; 10 mg/ml)): > 10 mg/mL | solubility (Dextrose 5% (USP), 0.1 ml Freely soluble (0.1 g/ml), 10 mg in Dextrose 5% (USP)): > 100 mg/mL | solubility (Dextrose 5% (USP), 10 ml Slightly soluble (0.001 g/ml; 1 mg/ml), 10 mg in Dextrose 5% (USP)): > 1 mg/mL | solubility (Ethanol (USP), 10 mg in Ethanol (USP), read-out: 0.01 ml Very soluble (1 g/ml)): < 1000 mg/mL | solubility (Ethanol (USP), 10 mg in Ethanol (USP), read-out: 0.5 ml Soluble (0.02 g/ml; 20 mg/ml)): > 20 mg/mL | solubility (Ethanol (USP), 10 mg in Ethanol (USP), read-out: 1 ml Sparingly soluble (0.01 g/ml; 10 mg/ml)): > 10 mg/mL | solubility (Ethanol (USP), 0.1 ml Freely soluble (0.1 g/ml), 10 mg in Ethanol (USP)): > 100 mg/mL | solubility (Ethanol (USP), 10 ml Slightly soluble (0.001 g/ml; 1 mg/ml), 10 mg in Ethanol (USP)): > 1 mg/mL | solubility (Lactic acid 37 mM, Mannitol 250 mM, pH 4.3, 10 mg in Lactic acid 37 mM, Mannitol 250 mM (pH 4.3), read-out: 0.01 ml Very soluble (1 g/ml)): < 1000 mg/mL | solubility (Lactic acid 37 mM, Mannitol 250 mM, pH 4.3, 10 mg in Lactic acid 37 mM, Mannitol 250 mM (pH 4.3), read-out: 0.5 ml Soluble (0.02 g/ml; 20 mg/ml)): > 20 mg/mL | solubility (Lactic acid 37 mM, Mannitol 250 mM, pH 4.3, 10 mg in Lactic acid 37 mM, Mannitol 250 mM (pH 4.3), read-out: 1 ml Sparingly soluble (0.01 g/ml; 10 mg/ml)): > 10 mg/mL | solubility (Lactic acid 37 mM, Mannitol 250 mM, pH 4.3, 0.1 ml Freely soluble (0.1 g/ml), 10 mg in Lactic acid 37 mM, Mannitol 250 mM (pH 4.3)): > 100 mg/mL | solubility (Lactic acid 37 mM, Mannitol 250 mM, pH 4.3, 10 ml Slightly soluble (0.001 g/ml; 1 mg/ml), 10 mg in Lactic acid 37 mM, Mannitol 250 mM (pH 4.3)): > 1 mg/mL | solubility (PBS, pH 7.2, 10 mg in PBS pH 7.2, read-out: 0.01 ml Very soluble (1 g/ml)): < 1000 mg/mL | solubility (PBS, pH 7.2, 10 mg in PBS pH 7.2, read-out: 0.5 ml Soluble (0.02 g/ml; 20 mg/ml)): < 20 mg/mL | solubility (PBS, pH 7.2, 10 mg in PBS pH 7.2, read-out: 1 ml Sparingly soluble (0.01 g/ml; 10 mg/ml)): < 10 mg/mL | solubility (PBS, pH 7.2, 0.1 ml Freely soluble (0.1 g/ml), 10 mg in PBS pH 7.2): < 100 mg/mL | solubility (PBS, pH 7.2, 10 ml Slightly soluble (0.001 g/ml; 1 mg/ml), 10 mg in PBS pH 7.2): < 1 mg/mL | solubility (Propylene glycol, 10 mg in Propylene glycol, read-out: 0.01 ml Very soluble (1 g/ml)): < 1000 mg/mL | solubility (Propylene glycol, 10 mg in Propylene glycol, read-out: 0.5 ml Soluble (0.02 g/ml; 20 mg/ml)): > 20 mg/mL | solubility (Propylene glycol, 10 mg in Propylene glycol, read-out: 1 ml Sparingly soluble (0.01 g/ml; 10 mg/ml)): > 10 mg/mL | solubility (Propylene glycol, 0.1 ml Freely soluble (0.1 g/ml), 10 mg in Propylene glycol): > 100 mg/mL | solubility (Propylene glycol, 10 ml Slightly soluble (0.001 g/ml; 1 mg/ml), 10 mg in Propylene glycol): > 1 mg/mL | solubility (Saline (USP) (0.9% NaCl), pH 4.5, 10 mg in Saline (USP) (0.9% NaCl) pH 4.5, read-out: 0.01 ml Very soluble (1 g/ml)): < 1000 mg/mL | solubility (Saline (USP) (0.9% NaCl), pH 4.5, 10 mg in Saline (USP) (0.9% NaCl) pH 4.5, read-out: 0.5 ml Soluble (0.02 g/ml; 20 mg/ml)): < 20 mg/mL | solubility (Saline (USP) (0.9% NaCl), pH 4.5, 10 mg in Saline (USP) (0.9% NaCl) pH 4.5, read-out: 1 ml Sparingly soluble (0.01 g/ml; 10 mg/ml)): < 10 mg/mL | solubility (Saline (USP) (0.9% NaCl), pH 4.5, 0.1 ml Freely soluble (0.1 g/ml), 10 mg in Saline (USP) (0.9% NaCl) pH 4.5): < 100 mg/mL | solubility (Saline (USP) (0.9% NaCl), pH 4.5, 10 ml Slightly soluble (0.001 g/ml; 1 mg/ml), 10 mg in Saline (USP) (0.9% NaCl) pH 4.5): < 1 mg/mL | solubility (caprylic acid, 10 mg in Caprylic acid, read-out: 0.01 ml Very soluble (1 g/ml)): < 1000 mg/mL | solubility (caprylic acid, 10 mg in Caprylic acid, read-out: 0.5 ml Soluble (0.02 g/ml; 20 mg/ml)): > 20 mg/mL | solubility (caprylic acid, 10 mg in Caprylic acid, read-out: 1 ml Sparingly soluble (0.01 g/ml; 10 mg/ml)): > 10 mg/mL | solubility (caprylic acid, 0.1 ml Freely soluble (0.1 g/ml), 10 mg in Caprylic acid): < 100 mg/mL | solubility (caprylic acid, 10 ml Slightly soluble (0.001 g/ml; 1 mg/ml), 10 mg in Caprylic acid): > 1 mg/mL | solubility (double distilled water, 10 mg in DDW (Double distilled water), read-out: 0.01 ml Very soluble (1 g/ml)): < 1000 mg/mL | solubility (double distilled water, 10 mg in DDW (Double distilled water), read-out: 0.5 ml Soluble (0.02 g/ml; 20 mg/ml)): > 20 mg/mL | solubility (double distilled water, 10 mg in DDW (Double distilled water), read-out: 1 ml Sparingly soluble (0.01 g/ml; 10 mg/ml)): > 10 mg/mL | solubility (double distilled water, 0.1 ml Freely soluble (0.1 g/ml), 10 mg in DDW (Double distilled water)): > 100 mg/mL | solubility (double distilled water, 10 ml Slightly soluble (0.001 g/ml; 1 mg/ml), 10 mg in DDW (Double distilled water)): > 1 mg/mL | solubility (glycerol, 10 mg in Glycerol, read-out: 0.01 ml Very soluble (1 g/ml)): < 1000 mg/mL | solubility (glycerol, 10 mg in Glycerol, read-out: 0.5 ml Soluble (0.02 g/ml; 20 mg/ml)): > 20 mg/mL | solubility (glycerol, 10 mg in Glycerol, read-out: 1 ml Sparingly soluble (0.01 g/ml; 10 mg/ml)): > 10 mg/mL | solubility (glycerol, 0.1 ml Freely soluble (0.1 g/ml), 10 mg in Glycerol): < 100 mg/mL | solubility (glycerol, 10 ml Slightly soluble (0.001 g/ml; 1 mg/ml), 10 mg in Glycerol): > 1 mg/mL | solubility (oleic acid, 10 mg in Oleic acid, read-out: 0.01 ml Very soluble (1 g/ml)): < 1000 mg/mL | solubility (oleic acid, 10 mg in Oleic acid, read-out: 0.5 ml Soluble (0.02 g/ml; 20 mg/ml)): < 20 mg/mL | solubility (oleic acid, 10 mg in Oleic acid, read-out: 1 ml Sparingly soluble (0.01 g/ml; 10 mg/ml)): < 10 mg/mL | solubility (oleic acid, 0.1 ml Freely soluble (0.1 g/ml), 10 mg in Oleic acid): < 100 mg/mL | solubility (oleic acid, 10 ml Slightly soluble (0.001 g/ml; 1 mg/ml), 10 mg in Oleic acid): < 1 mg/mL | solubility (refined vegetable oils (olive, cotton, coconut, canola), 10 mg in Refined vegetable oils, Olive, Cotton, Coconut, Canola, read-out: 0.01 ml Very soluble (1 g/ml)): < 1000 mg/mL | solubility (refined vegetable oils (olive, cotton, coconut, canola), 10 mg in Refined vegetable oils, Olive, Cotton, Coconut, Canola, read-out: 0.5 ml Soluble (0.02 g/ml; 20 mg/ml)): < 20 mg/mL | solubility (refined vegetable oils (olive, cotton, coconut, canola), 10 mg in Refined vegetable oils, Olive, Cotton, Coconut, Canola, read-out: 1 ml Sparingly soluble (0.01 g/ml; 10 mg/ml)): < 10 mg/mL | solubility (refined vegetable oils (olive, cotton, coconut, canola), 0.1 ml Freely soluble (0.1 g/ml), 10 mg in Refined vegetable oils, Olive, Cotton, Coconut, Canola): < 100 mg/mL | solubility (refined vegetable oils (olive, cotton, coconut, canola), 10 ml Slightly soluble (0.001 g/ml; 1 mg/ml), 10 mg in Refined vegetable oils, Olive, Cotton, Coconut, Canola): < 1 mg/mL | solubility (water for injection (WFI-USP), 10 mg in WFI-USP (water for injection), read-out: 0.01 ml Very soluble (1 g/ml)): < 1000 mg/mL | solubility (water for injection (WFI-USP), 10 mg in WFI-USP (water for injection), read-out: 0.5 ml Soluble (0.02 g/ml; 20 mg/ml)): > 20 mg/mL | solubility (water for injection (WFI-USP), 10 mg in WFI-USP (water for injection), read-out: 1 ml Sparingly soluble (0.01 g/ml; 10 mg/ml)): > 10 mg/mL | solubility (water for injection (WFI-USP), 0.1 ml Freely soluble (0.1 g/ml), 10 mg in WFI-USP (water for injection)): < 100 mg/mL | solubility (water for injection (WFI-USP), 10 ml Slightly soluble (0.001 g/ml; 1 mg/ml), 10 mg in WFI-USP (water for injection)): > 1 mg/mL
SMILES: C[C@@H](O)[C@@H]1NC(=O)[C@H](CCCCN)NC(=O)[C@@H](Cc2c[nH]c3ccccc23)NC(=O)[C@H](Cc2c[nH]c3ccccc23)NC(=O)[C@H](Cc2ccccc2)NC(=O)CCCNC(=O)CCCN(CC(N)=O)C(=O)[C@H](Cc2ccccc2)NC1=O [Veldoreotide Acetate, Cyclo(-γ-aminobutyryl-L-phenylalanyl-L-tryptophanyl-D-tryptophanyl-L-lysyl-L-threonyl-L-phenylalanyl-N-carbamoylmethyl-γ-aminobutyryl), acetate salt]
